Assay results: patent US20050154034A1, “Methods of using zonisamide as an adjunctive therapy for partial seizures” (Eisai Co., Ltd., priority 2004, published 2005)

Legend:
[1] = Pharmacovigilance review of rhabdomyolysis/CPK elevation in zonisamide-treated patients; type: in vivo, human patients (U.S. and Japan)
Source text: The pharmacovigilance data that were collected, reviewed and analyzed provided the following information in respect of the incidence of rhabdomyolysis/CPK elevation in the zonisamide-treated patient population. To date, a total of 10 cases fulfill the criteria of potential rhabdomyolysis cases. These 10 cases were reviewed in detail for evaluation of possible safety signals. All 10 cases fulfill serious criteria. Of these 10 cases, seven (7) cases were reported as rhabdomyolysis and three (3) cases were reported as CPK increase.
Of the seven (7) rhabdomyolysis cases, six (6) are verbatim cases from Dainippon and one (1) originates in the U.S. Of the seven (7) cases, three (3) were pediatric cases and four (4) were adult cases.
Of the seven (7) rhabdomyolysis cases, two (2) cases have strong confounding factors, but the possibility of zonisamide involvement cannot be completely excluded. Two (2) cases have moderate confounding factors, and zonisamide involvement may be possible.
Of the three (3) cases of CPK increase, one (1) is a verbatim report from Dainippon, and two (2) originated from the U.S. Of the three (3) cases, two are pediatric patients and one is an adult. Of these three (3) cases, two (2) recovered and the outcome of the third is unknown.
Of the three (3) cases of CPK increase, one (1) case has strong confounding factors, but the possibility of zonisamide involvement cannot be completely excluded. One (1) case has weak confounding factors, and zonisamide involvement may be possible.
Estimates of zonisamide exposure, based upon retail and mail order prescriptions, indicate that the number of unique patients taking zonisamide capsules in the U.S. is about 37,276 (total prescriptions per year/average number of prescriptions per patient per year less a calculated percentage decrease based on estimated annual dropouts) in the time between approval in 2000 and December 2002 . Hospital patient data for that period, however, is not available and is not reflected in the estimates. Estimates of patient exposure for Japan indicate that the number of unique patients taking zonisamide is about 1,185,177 for time beginning with the approval in Japan through December 2002. Japanese data includes prescription and hospital patient data. Exposure from clinical trials are not included in the U.S. or Japanese exposure estimates. Based on these statistics, the estimated number of patients exposed to zonisamide in the U.S. and Japan is 1,222,453 unique patients. This is a rather conservative estimate, assuring that the number of patients actually exposed to zonisamide is unlikely to be higher than the estimate provided. Similarly, the incidences of rhabdomyolysis estimated herein are unlikely to be higher than calculated. […] For the one (1) case reported in Japan, this amounts to an estimated incidence of 1:1,185,177 based upon estimated Japanese exposure. For the one (1) case reported in the US, this represents an estimated incidence of 1:37,276 based upon estimated US exposure. These two (2) cases of CPK increase represent a combined estimated incidence of 1:611,227 based upon the combined estimates of Japanese and US exposure. Thus, the overall estimated incidences of elevated CPK are 1:395,059 for Japanese cases, 1:18,638 for US cases and 1:244,491 for both Japanese and US cases, based on combining the reported cases of rhabdomyolysis and elevated CPK (the standard surrogate marker of muscle breakdown and typically seen in rhabdomyolysis).
Combining all the above cases of rhabdomyolysis and CPK increase, the estimated incidences of any patient who has experienced an elevated CPK (marker of muscle breakdown) are 1:400,000 for Japanese cases and 1:18,000 for US cases.

sodium channels = settings: in vitro; cited from earlier work
T-type Ca2+ currents = settings: in vitro; cited from earlier work
[2] = tested on: GABA/benzodiazepine receptor ionophore complex; settings: in vitro; cited from earlier work
[3] = tested on: cultured mouse spinal cord neurons; settings: 10-30 μg/mL, cited from earlier work
rat hippocampal slices = settings: 10-30 μg/mL; cited from earlier work
[4] = tested on: dopaminergic and serotonergic neurotransmission; settings: in vivo microdialysis; cited from earlier work
[5] = cited from earlier work
carbonic anhydrase = settings: fraction of the inhibition of acetazolamide; cited from earlier work

SMILES: NS(=O)(=O)Cc1noc2ccccc12 [zonisamide, 1,2-benzisoxazole-3-methanesulfonamide]
- CPK increase cases recovered ([1]; human, in vivo): 2 cases
- cases fulfilling the criteria of potential rhabdomyolysis cases ([1]; human, in vivo): 10 cases
- cases of CPK increase with no or only weak confounding factors present ([1]; human, in vivo): 2 cases
- cases of rhabdomyolysis with no or only weak confounding factors present ([1]; human, in vivo): 3 cases
- cases reported as CPK increase ([1]; human, in vivo): 3 cases
- cases reported as rhabdomyolysis ([1]; human, in vivo): 7 cases
- combined estimated incidence of CPK increase ([1]; human, in vivo): 1:611,227
- rhabdomyolysis cases not recovered ([1]; human, in vivo): 2 cases
- rhabdomyolysis cases recovered ([1]; human, in vivo): 2 cases
- rhabdomyolysis cases recovering at time of report ([1]; human, in vivo): 1 cases
- time to development of CPK increase after initiation of zonisamide treatment ([1]; human, in vivo): two (2) days and six (6) weeks
- time to development of rhabdomyolysis after initiation of zonisamide treatment ([1]; human, in vivo): two (2) weeks and nine (9) years
- rhabdomyolysis cases with fatal outcome ([1]; of 7 rhabdomyolysis cases): 2 cases
- effect on sodium channels (sodium channels): blocks sodium channels
- effect on voltage-dependent, transient inward currents (T-type Ca2+ currents) (T-type Ca2+ currents): reduces
- binding to GABA/benzodiazepine receptor ionophore complex [2]: binds to the GABA/benzodiazepine receptor ionophore complex in an allosteric fashion
- changes in chloride flux [2]: does not produce changes in chloride flux
- postsynaptic GABA or glutamate responses ([3]; cultured mouse spinal cord neurons): without affecting
- synaptically-driven electrical activity [3]: suppresses
- neuronal or glial uptake of [3H]-GABA (rat hippocampal slices): without affecting
- dopaminergic and serotonergic neurotransmission [4]: facilitates
- frequency of side effects by dose ([5]; doses of 300 mg per day and above): more frequent
- half-life ([5]; human, in vivo): long half-life
- hepatic enzyme induction ([5]; human, in vivo): not known to be a hepatic enzyme inducer
- time required to achieve steady state levels ([5]; upon reaching a stable dose or following dosage adjustment): up to two weeks
- carbonic anhydrase inhibition compared to acetazolamide (carbonic anhydrase): 1/50
